Assay results published in patent US10179148B2, “Keratolytic composition with anti-allergic anti-inflammatory properties” (priority 2003, dated 2019).

System: psoriasis patients
Assay: topical testing of cleansing/topical compositions on psoriasis patients
Type: in vivo, human
Details: in cleansing liquid along with gentle surfactants sodium laureth sulfate and ammonium laureth sulfate; psoriasis effected patients; 5 patients
Excerpt: Most of the cleansing agents contain sodium chloride and/or ammonium chloride and/or potassium chloride.
This invention is lead by desire for developing a new and innovative treatment, which can be used in the longer periods of time without side effect associated with other products. The Topical Composition given in the example being used for more than 6 months and also tested on other psoriasis patients with encouraging results.
Though the exact mechanism of action of quaternary ammonium compounds, such as ammonium chloride, and vanilla is not fully understood, actual testing on psoriasis patients have shown encouraging results without side effects associated with steroids and other presently available psoriasis topical applications.

| SMILES | keratolytic properties (removing scales) |
| --- | --- |
| Cl.N [ammonium chloride] | showing keratolytic properties by removing scales |
| [Cl-].[Na+] [sodium chloride] | not having keratolytic properties |
